Laboratory results as given in patent US12649750B2, “Macrocyclic compounds, compositions, and methods of using thereof” (Sionna Therapeutics Inc., priority 2022, dated 2026).

Key:
NBD1 = molecular target: T1, NBD1 (Homo sapiens, UniProt P13569); experiment: Aggregation analysis using differential static light scattering (DSLS), thermal stability of NBD1 (ΔTagg); format: binding; details: ΔTagg versus DMSO control, NBD1 0.2 mg/ml
T1 construct: Purified recombinant NBD1 was produced using previously described methods; made in house
T1 sequence (P13569 423-646 limits assumed): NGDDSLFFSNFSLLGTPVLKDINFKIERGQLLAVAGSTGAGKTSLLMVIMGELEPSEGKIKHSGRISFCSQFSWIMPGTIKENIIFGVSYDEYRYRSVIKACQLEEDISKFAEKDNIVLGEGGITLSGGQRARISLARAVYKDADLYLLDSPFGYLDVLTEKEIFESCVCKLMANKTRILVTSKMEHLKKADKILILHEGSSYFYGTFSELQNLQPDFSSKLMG
How it was run: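 Differential static light scattering read from 25° C. to 70° C. every 0.5° C., ramp 1° C./min, on recombinant NBD1 (0.2 mg/ml; Tris/NaCl/MgCl2 buffer with 2 mM ATP, 2 mM DTT, pH 7.6, 1% glycerol) plus compound. Reported ΔTagg subtracts averaged DMSO Tagg from inflection-point Tagg; categories A ≤5, B >5-10, C >10-25° C.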

CFTR = molecular target: T2, CFTR (Homo sapiens, UniProt P13569, DEL508-508); experiment: TECC24 AUC fold over DMSO @10 μM, CFTR-mediated transepithelial chloride transport in CF-HBE cells; format: cell-based; details: test agent AUC divided by DMSO vehicle AUC, primary CF-HBE cells, ΔF508 homozygous donor, 48 hours incubation
T2 construct: Primary human bronchial epithelial cells from a ΔF508 homozygous CF donor; host or cells: primary human bronchial epithelial cells (CF-HBE), ΔF508 homozygous donor
T2 sequence (P13569 with tags, fused parts or gaps DEL508-508): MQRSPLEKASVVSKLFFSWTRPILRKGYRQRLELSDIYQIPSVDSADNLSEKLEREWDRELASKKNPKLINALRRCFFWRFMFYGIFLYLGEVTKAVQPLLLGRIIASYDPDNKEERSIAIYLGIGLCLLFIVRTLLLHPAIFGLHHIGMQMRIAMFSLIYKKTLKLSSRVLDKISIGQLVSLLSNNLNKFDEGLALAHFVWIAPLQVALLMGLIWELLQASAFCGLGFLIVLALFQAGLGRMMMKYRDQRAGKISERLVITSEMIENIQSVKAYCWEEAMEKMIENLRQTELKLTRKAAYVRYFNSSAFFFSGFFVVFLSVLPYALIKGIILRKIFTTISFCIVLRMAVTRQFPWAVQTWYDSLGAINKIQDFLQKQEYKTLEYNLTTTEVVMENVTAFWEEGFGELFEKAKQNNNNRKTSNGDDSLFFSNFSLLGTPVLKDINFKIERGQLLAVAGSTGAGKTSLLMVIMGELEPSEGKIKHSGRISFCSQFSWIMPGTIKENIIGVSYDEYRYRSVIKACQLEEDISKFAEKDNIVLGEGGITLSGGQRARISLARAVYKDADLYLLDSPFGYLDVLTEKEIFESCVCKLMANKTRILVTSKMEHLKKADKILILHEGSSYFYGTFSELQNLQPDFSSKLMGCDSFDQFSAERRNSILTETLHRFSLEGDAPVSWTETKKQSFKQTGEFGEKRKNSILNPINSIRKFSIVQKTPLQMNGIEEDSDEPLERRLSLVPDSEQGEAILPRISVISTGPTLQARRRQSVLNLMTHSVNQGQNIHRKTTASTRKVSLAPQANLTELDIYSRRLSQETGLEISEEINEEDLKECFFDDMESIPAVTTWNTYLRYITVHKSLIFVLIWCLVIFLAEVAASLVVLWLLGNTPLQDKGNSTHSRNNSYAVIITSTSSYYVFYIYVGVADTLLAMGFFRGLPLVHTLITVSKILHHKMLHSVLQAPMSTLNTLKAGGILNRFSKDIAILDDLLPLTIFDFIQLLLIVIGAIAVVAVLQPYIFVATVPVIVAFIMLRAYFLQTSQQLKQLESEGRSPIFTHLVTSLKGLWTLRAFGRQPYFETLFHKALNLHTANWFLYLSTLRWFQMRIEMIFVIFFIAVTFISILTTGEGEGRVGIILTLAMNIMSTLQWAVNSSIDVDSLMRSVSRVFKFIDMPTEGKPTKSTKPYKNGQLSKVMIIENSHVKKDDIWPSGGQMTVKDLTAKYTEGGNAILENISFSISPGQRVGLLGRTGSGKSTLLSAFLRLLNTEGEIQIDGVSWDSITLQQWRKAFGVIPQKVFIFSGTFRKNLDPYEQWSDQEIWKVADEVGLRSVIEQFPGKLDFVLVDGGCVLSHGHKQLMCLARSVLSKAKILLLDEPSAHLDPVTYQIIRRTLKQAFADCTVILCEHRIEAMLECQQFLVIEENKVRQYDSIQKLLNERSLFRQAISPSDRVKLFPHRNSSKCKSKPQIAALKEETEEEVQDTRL
How it was run: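 Value is ratio of test-agent to DMSO AUC of equivalent transepithelial Cl− current, integrated from forskolin (10 μM) stimulation to CFTR inhibitor-172 (20 μM) block, with benzamil 10 μM present. CF-HBE (ΔF508/ΔF508) cultures had 48 h compound exposure at 10 μM, 36.5° C before recording.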

Row | Structure (SMILES) | DSLS 3D (100 μM ΔT) (NBD1) | TECC (AUC, 10 μM) (CFTR)
1 | Cc1cnn2c1-c1cc(ccc1F)Oc1c(F)cc3[nH]ccc3c1CCS(=O)(=O)CC(C)(C)CCCC2c1cccc(CCC(=O)O)c1 (single isomer, unassigned) [Compound 65A, 3-[3-(23,29-Difluoro-3,11,11-trimethyl-13,13-dioxo-25-oxa-13λ6-thia-5,6,20-triazapentacyclo[24.3.1.02,6.016,24.017,21]triaconta-1(30),2,4,16,18,21,23,26,28-nonaen-7-yl)phenyl]propanoic acid] | B (a value above 5 °C and less than or equal to 10 °C is marked “B”) | A (a TECC value less than 12 is marked “A”)
2 | C[C@@H](Cc1cccc([C@@]2(C)CCCC(C)(C)CS(=O)(=O)CCc3c(c(F)cc4[nH]ccc34)[S+]([O-])c3ccc(F)c(c3)-c3nc2cs3)c1)C(=O)O (single isomer, unassigned) [Compound 241B] | A (an ΔTagg value less than or equal to 5 °C is marked “A”) | A (a TECC value less than 12 is marked “A”)
3 | CC1(C)CCCC(C)(c2cccc(CC3(C(=O)O)CC3)c2)c2c[nH]c(n2)-c2cc(ccc2F)Oc2c(F)cc3[nH]ccc3c2CCS(=O)(=O)C1 (single isomer, unassigned) [Compound 171B, 1-[[3-(22,28-difluoro-6,10,10-trimethyl-12,12-dioxo-24-oxa-12λ6-thia-3,19,30-triazapentacyclo[23.3.1.12,5.015,23.016,20]triaconta-1(29),2(30),4,15,17,20,22,25,27-nonaen-6-yl)phenyl]methyl]cyclopropanecarboxylic Acid] | C (a value greater than 10 °C and less than or equal to 25 °C is marked “C”) | A (a TECC value less than 12 is marked “A”)
4 | CC1(C)CCCC(c2cccc(CCC(=O)O)c2)n2cc(C#N)c(n2)-c2cc(ccc2F)Oc2c(F)cc3[nH]ccc3c2CCS(=O)(=O)C1 (single isomer, unassigned) [Compound 22C, 3-[3-[3-cyano-22,28-difluoro-10,10-dimethyl-12,12-dioxo-24-oxa-12lambda6-thia-5,19,30-triazapentacyclo[23.3.1.12,5.015,23.016,20]triaconta-1(29),2(30),3,15,17,20,22,25,27-nonaen-6-yl]phenyl]propanoic acid] | C (a value greater than 10 °C and less than or equal to 25 °C is marked “C”) | C (a value between 20 and 80 is marked “C”)
5 | CC(Oc1cccc(C2(C)CCCC(C)(C)CS(=O)(=O)CCc3c(c(F)cc4[nH]ccc34)Oc3ccc(F)c(c3)-c3nc2nn3C)c1)C(=O)O (stereo not drawn) [Compound 19B, 2-[3-[22,28-difluoro-3,6,10,10-tetramethyl-12,12-dioxo-24-oxa-12 6-thia-3,4,19,30-tetrazapentacyclo[23.3.1.12,5.015,23.016,20]triaconta-1(29),2(30),4,15,17,20,22,25,27-nonaen-6-yl]phenoxy]propanoic Acid] | A (an ΔTagg value less than or equal to 5 °C is marked “A”) | A (a TECC value less than 12 is marked “A”)
6 | C[C@@H](Cc1cccc([C@@]2(C)CCCC(C)(C)CS(=O)(=O)CCc3c(c(F)cc4[nH]ccc34)C(O)c3ccnc(c3)-c3nc2nn3C)c1)C(=O)O (single isomer, unassigned) [Compound 255B] | C (a value greater than 10 °C and less than or equal to 25 °C is marked “C”) | C (a value between 20 and 80 is marked “C”)
7 | CC(Cc1cccc(C2(C)CCS(=O)(=O)CC(C)(C)c3cnn(c3)Cc3c(c(F)cc4[nH]ccc34)Oc3ccc(F)c(c3)-c3nc2nn3C)c1)C(=O)O (stereo not drawn) [Compound 110, 3-[3-(24,30-Difluoro-3,6,11,11-tetramethyl-9,9-dioxo-26-oxa-9lambda6-thia-3,4,14,15,21,33-hexazahexacyclo-[25.3.1.12,5.112,15.017,25.018,22]tritriaconta-1(31),2(33),4,12(32),13,17,19,22,24,27,29-undecaen-6-yl)phenyl]-2-methyl-propanoic Acid] | B (a value above 5 °C and less than or equal to 10 °C is marked “B”) | C (a value between 20 and 80 is marked “C”)
8 | Cn1nc2nc1-c1cc(ccc1F)Oc1c(F)cc3[nH]ccc3c1Cc1ccnn1CCS(=O)(=O)CCC2(C)c1cccc(CCC(=O)O)c1 (stereo not drawn) [Compound 99, 3-[3-(25,31-Difluoro-3,6-dimethyl-9,9-dioxo-27-oxa-9λ6-thia-3,4,12,13,22,33-hexazahexacyclo[26.3.1.12,5.012,16.018,26.019,23]tritriaconta-1(32),2(33),4,13,15,18,20,23,25,28,30-undecaen-6-yl)phenyl]propanoic Acid] | A (an ΔTagg value less than or equal to 5 °C is marked “A”) | A (a TECC value less than 12 is marked “A”)
9 | [2H]C([2H])([2H])C1(c2cccc(CC(C)C(=O)O)c2)CCCC(C)(C)CS(=O)(=O)CCc2c(c(F)cc3[nH]ccc23)Oc2ccc(F)c(c2)-c2nc1nn2C (single isomer, unassigned) [Compound 10B, 3-[3-[22,28-difluoro-3,10,10-trimethyl-12,12-dioxo-6-(trideuteriomethyl)-24-oxa-12lambda6-thia-3,4,19,30-tetrazapentacyclo[23.3.1.12,5.015,23.016,20]triaconta-1(29),2(30),4,15,17,20,22,25,27-nonaen-6-yl]phenyl]-2-methyl-propanoic Acid] | B (a value above 5 °C and less than or equal to 10 °C is marked “B”) | A (a TECC value less than 12 is marked “A”)
10 | CC(Cc1cccc(C2(C#N)CCCC(C)(C)CS(=O)(=O)CCc3c(c(F)cc4[nH]ccc34)Oc3ccc(F)c(c3)-c3nc2nn3C)c1F)C(=O)O (single isomer, unassigned) [Compound 124A, 3-[3-(6-cyano-22,28-difluoro-3,10,10-trimethyl-12,12-dioxo-24-oxa-12λ6-thia-3,4,19,30-tetrazapentacyclo-[23.3.1.12,5.015,23.016,20]triaconta-1(29),2(30),4,15,17,20,22,25,27-nonaen-6-yl)-2-fluoro-phenyl]-2-methyl-propanoic Acid] | C (a value greater than 10 °C and less than or equal to 25 °C is marked “C”) | A (a TECC value less than 12 is marked “A”)
11 | C[C@@H](Cc1cccc(C2(C)CCCC(C)(C)CS(=O)(=O)CCc3c(c(F)cc4[nH]ccc34)Oc3ccc(F)c(c3)-c3nc2nn3C)c1)C(=O)OCCO (single isomer, unassigned) [Compound 140] | C (a value greater than 10 °C and less than or equal to 25 °C is marked “C”) | B (a value between 12-20 is marked “B”)
12 | CC(Cc1cccc(C2(C)COCC(C)(C)CS(=O)(=O)CCc3c(c(F)cc4[nH]ccc34)Oc3ccc(F)c(c3)-c3nc2nn3C)c1)C(=O)O (single isomer, unassigned) [Compound 113B] | A (an ΔTagg value less than or equal to 5 °C is marked “A”) | A (a TECC value less than 12 is marked “A”)
13 | C[C@@H](Cc1cccc([C@@]2(C)CCCC(C)(C)CS(=O)(=O)CCc3c(c(F)c(F)c4[nH]ccc34)Oc3ccnc(c3)-c3nc2nn3C)c1)C(=O)O [Compound 262, (2S)-3-[3-[(6R)-21,22-Difluoro-3,6,10,10-tetramethyl-12,12-dioxo-24-oxa-12λ6-thia-3,4,19,28,30-pentazapentacyclo[23.3.1.12,5.015,23.016,20]triaconta-1(29),2(30),4,15,17,20,22,25,27-nonaen-6-yl]phenyl]-2-methyl-propanoic Acid] | C (a value greater than 10 °C and less than or equal to 25 °C is marked “C”) | C (a value between 20 and 80 is marked “C”)
14 | Cn1nc2nc1-c1cc(ccc1F)Oc1c(F)cc3[nH]ccc3c1CCS(=O)(=O)CC(C)(C)CCCC2(C)c1cccc(CC2CC(=O)N(O)C2=O)c1 (single isomer, unassigned) [Compound 195A, 3-[[3-(22,28-difluoro-3,6,10,10-tetramethyl-12,12-dioxo-24-oxa-12λ6-thia-3,4,19,30-tetrazapentacyclo[23.3.1.12,5.015,23.016,20]triaconta-1(29),2(30),4,15,17,20,22,25,27-nonaen-6-yl)phenyl]methyl]-1-hydroxy-pyrrolidine-2,5-dione] | C (a value greater than 10 °C and less than or equal to 25 °C is marked “C”) | C (a value between 20 and 80 is marked “C”)
15 | CC(Cc1cccc(C2(C)CCS(=O)(=O)CCS(=O)(=O)CCc3c(c(F)cc4[nH]ccc34)Oc3ccc(F)c(c3)-c3nc2nn3C)c1)C(=O)O (stereo not drawn) [Compound 112, 3-[3-(22,28-Difluoro-3,6-dimethyl-9,9,12,12-tetraoxo-24-oxa-9lambda6,12lambda6-dithia-3,4,19,30-tetrazapentacyclo[23.3.1.12,5.015,23.016,20]triaconta-1(29),2(30),4,15,17,20,22,25,27-nonaen-6-yl)phenyl]-2-methyl-propanoic Acid] | B (a value above 5 °C and less than or equal to 10 °C is marked “B”) | A (a TECC value less than 12 is marked “A”)
